Measurements: patent publication US12268739B2, “Use of toll-like receptor 2 (TLR-2) agonist for modulating human immune response” (Children's Medical Center Corporation, priority 2018, dated 2025)
“Also recorded” adds a separate entry of the source.

What was measured:
[1] = system: THP1-NF-κB cells; assay: THP1-NF-κB cell stimulation for 24 hours, secreted luciferase luminescence; type: cell-based, human
Method: THP-1 Cell Line and Culture Conditions. The THP1-Lucia™ cell line was obtained from Invivogen (San Diego, CA). THP1-Lucia cells, which are human monocytic cells derived from the blood of a child with leukemia, contain an NF-kB-inducible Luc reporter construct. This allows NF-kB activation to be measured by quantifying the luminescence from the secreted luciferase enzyme. THP1-Lucia cells were cultured in RPMI 1640 supplemented with 10% non-heat inactivated fetal bovine serum (FBS), 10 mM HEPES, 1.0 mM sodium pyruvate, 50 ug/ml Pen-Strep, and 100 ug/mL Normocin™. Once cultured, the cells were stored in a 37° C. incubator with 5% CO2 and a humidified atmosphere. Cells were passaged every 2-3 days and not allowed to exceed a concentration of 2.0×10^6 cells/ml media.
PBMCs were isolated from blood using a Ficoll density gradient. PBMCs either used fresh or were stored at 5×10^7 cells per vial in 1 mL RPMI containing 20% autologous plasma and 10% DMSO at −80° C. until use. Stimulation plates were prepared by transferring 0.66 μl of DMSO-dissolved compounds (30 or 7.5 mM) to each well of a round bottom 96-well plate. PBMCs isolated from human adult donors or THP1-NF-κB cells were resuspended at a concentration of 10^5 cells/200 μl of RPMI supplemented with 10% of platelet-poor plasma or THP1 culture medium, respectively. 200 μl of the cell suspension were transferred to each well resulting in a final compound concentration of 100 or 25 μM. After 24 hours of incubation (37° C., 5% CO2), plates were spun down (500×g, room temperature, 5 minutes) and supernatants were harvested for further analysis.

[2] = target: T1, human TLR2 (Homo sapiens, UniProt O60603); assay: HEK-Blue human TLR cell screening (NF-κB SEAP reporter); type: cell-based; conditions: compounds at 10 μM, fold change over negative controls; listed as 080
T1 construct: expressed in transfected cells; host or cells: HEK-Blue (human embryonic kidney) cells with an NF-kB-inducible SEAP reporter
Method: HEK cell screening. Human embryonic kidney (HEK)-Blue cell lines expressing human TLRs (hTLRs) and a secreted embryonic alkaline phosphatase (SEAP) reporter under the control of an NF-κB-inducible promoter were cultured in 96-well plates (50,000-75,000 cells/200 μl/well) and stimulated with the indicated compounds at 10 µM or positive controls. The media added to the wells is designed for detection of NF-κB-induced SEAP expression. After 16-24 hours of incubation optical density (OD) was read at 650 nm on a Molecular Devices SpectraMax 340PC absorbance detector. Positive controls employed in this assay were: heat-killed Listeria monocytogenes (1×10^8 cells/ml) for hTLR2, Poly (I:C) HMW (1 μg/ml) for hTLR3, ? E. coli K12 LPS (100 ng/ml) for hTLR4, S. typhimurium flagellin (100 ng/ml) for hTLR5, CL307 (1 μg/ml) for hTLR7, CL075 (1 μg/ml) for hTLR8 and CpG ODN 2006 (1 μg/ml) for hTLR9.

[3] = system: C57BL/6 mice; assay: Mouse immunization with rHA, anti-rHA IgG titers by ELISA; type: in vivo; conditions: adult C57BL/6 mice, rHA formulated with compound (100 nmol) i.m., prime Day 0, boost Day 28, versus rHA alone; listed as 080
Method: C57BL/6 mice were obtained from Charles River Laboratories and housed in specific pathogen-free conditions in the animal research facilities at Boston Children's Hospital.
For immunization experiments, adult mice were immunized intramuscularly (i.m.) in the right posterior thigh with 50 μl of vaccine containing 0.33 μg of each of the following recombinant influenza virus hemagglutinins (rHA): A/Michigan/45/2015 (H1N1), A/Hong Kong/4801/2014 (H3N2), and B/Brisbane/60/2008, contained in the 2016-2017 formulation of the FluBlok vaccine (Protein Sciences Corp.). Mice were immunized with a prime-boost schedule (two injections four weeks apart). Vaccine in all experimental groups was formulated with 10% (v/v) DMSO (except for the groups immunized with the small molecules since they were dissolved in DMSO) and 5% (v/v) Tween-80. As indicated for specific experimental groups, vaccine was also formulated with Aluminium hydroxide (100 μg) or compound 080 (100 nmol, final DMSO concentration 10%). Serum was collected 28 days post-prime (pre-boost blood sample) and 14 days post-boost for antibody detection. rHA-specific IgG were quantified by ELISA. […] The optical density was read at 450 nm Versamax microplate reader with SoftMax Pro Version 5 (both from Molecular Devices) and endpoint titers were calculated using as cutoff three times the optical density of the background.

[4] = target: T1, human TLR2; assay: HEK293 assay for human TLR2 selectivity (NF-κB/SEAP); type: cell-based; conditions: 18-24 hours stimulation, titratable
Method: HEK293 assay for human TLR2 and TLR8 selectivity: Human embryonic kidney (HEK) 293 cells expressing human TLR2 or TLR8 with an NF-κB-responsive secreted embryonic alkaline phosphatase (SEAP) reporter gene were obtained from Invivogen (San Diego, CA). Cells were maintained in RPMI or DMEM with 10% heat inactivated-FBS and selection antibiotics per the manufacturer's instructions. Cells were plated at 5×10^5 cells/96-well and stimulated with indicated agonist(s) for 24 hours. Supernatants were harvested and analyzed for NF-κB/SEAP activation using the QuantiBlue kit (Invivogen). Values are expressed as fold change in OD650 over vehicle-only treated samples.

T1 sequence (O60603 21-784): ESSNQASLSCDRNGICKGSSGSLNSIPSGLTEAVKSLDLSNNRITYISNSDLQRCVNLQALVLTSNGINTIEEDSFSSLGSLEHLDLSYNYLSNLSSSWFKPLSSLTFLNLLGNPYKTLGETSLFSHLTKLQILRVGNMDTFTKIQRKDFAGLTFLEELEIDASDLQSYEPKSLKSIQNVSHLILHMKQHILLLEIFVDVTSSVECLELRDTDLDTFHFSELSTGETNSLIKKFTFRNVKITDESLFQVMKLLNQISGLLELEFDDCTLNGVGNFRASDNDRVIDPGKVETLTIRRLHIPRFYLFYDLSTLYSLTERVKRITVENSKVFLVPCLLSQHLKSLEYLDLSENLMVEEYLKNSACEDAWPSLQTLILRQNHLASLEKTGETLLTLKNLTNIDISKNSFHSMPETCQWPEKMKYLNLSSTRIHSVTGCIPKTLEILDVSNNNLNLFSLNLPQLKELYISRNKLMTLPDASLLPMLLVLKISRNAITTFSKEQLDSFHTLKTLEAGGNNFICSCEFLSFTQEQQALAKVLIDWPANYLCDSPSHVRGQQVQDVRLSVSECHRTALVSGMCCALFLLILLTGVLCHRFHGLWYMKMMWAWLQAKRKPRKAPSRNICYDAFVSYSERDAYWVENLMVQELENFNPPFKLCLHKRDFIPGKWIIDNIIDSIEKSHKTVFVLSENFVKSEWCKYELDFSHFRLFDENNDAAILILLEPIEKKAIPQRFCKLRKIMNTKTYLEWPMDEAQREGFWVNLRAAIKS

## CNC(=O)c1c(NC(=O)c2ccc(S(=O)(=O)N(C)C)cc2)sc2c1CCC2 [Compound 80]
[1]; 384 and 96 well assay
  Activation of THP1 cells: induced activation of THP1 cells
[1]; NF-κB-dependent luminescence, compound at 25 uM, 24 hours
  THP1 cells (relative luminescence units, N = 4) Comp at 25 uM: 8280 relative luminescence units
[1]; NF-κB-dependent luminescence, compound at 100 uM, 24 hours
  THP1 cells (relative luminescence units, N = 4) Comp at 100 uM: 12174 relative luminescence units
[2]
  Activation of human TLR2 (NF-κB activation in TLR-expressing HEK-Blue cells): activate human TLR2; also recorded: activated the human TLR2-expressing human embryonic kidney (HEK)-Blue cell line
[3]
  Adjuvant activity in vivo (anti-rHA IgG titers): exerts adjuvant activity in vivo; also recorded: higher antibody titers; also recorded: demonstrates in vivo adjuvanticity
[4]
  TLR2 activation in HEK TLR2 cells (SEAP): induced TLR2 specific activation
